We go through 24 compounds from patent US8173645B2 (Takeda San Diego, Inc., priority 2007, dated 2012).

This experiment deals with T1, glucokinase (GK), residues 12-465 of the human enzyme (Homo sapiens, UniProt P35557).
T1 construct: I.D. No. 1 corresponds to residues 12-465 of glucokinase; made in house; host or cells: E. coli DH10b-Tlr
T1 sequence (P35557 with tags, fused parts or gaps isoform P35557-2): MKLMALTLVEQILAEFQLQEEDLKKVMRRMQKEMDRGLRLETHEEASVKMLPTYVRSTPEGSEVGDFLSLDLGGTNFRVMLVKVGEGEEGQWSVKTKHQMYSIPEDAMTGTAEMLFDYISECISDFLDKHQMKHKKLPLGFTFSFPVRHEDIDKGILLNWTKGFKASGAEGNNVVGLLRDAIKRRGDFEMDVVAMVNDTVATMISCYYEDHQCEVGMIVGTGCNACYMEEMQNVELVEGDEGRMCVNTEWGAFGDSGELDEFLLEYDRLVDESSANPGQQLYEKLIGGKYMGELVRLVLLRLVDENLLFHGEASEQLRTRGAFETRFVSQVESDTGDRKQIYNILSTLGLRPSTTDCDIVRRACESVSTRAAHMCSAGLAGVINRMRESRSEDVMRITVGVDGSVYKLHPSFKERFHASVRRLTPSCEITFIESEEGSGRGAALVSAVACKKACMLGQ
Nature of the experiment: Enzymatic glucokinase activity assay (KinaseGlo luminescence, ATP consumption). In kind it is biochemical. The conditions noted are these: 5 μM ATP, 5 mM Glucose; for EC50: GK activation, Kact = concentration giving 50% of the maximal increase in GK activity, read-out: pKact; for Emax: calculated maximal gain in GK enzyme activity at a saturating concentration of the compound, read-out: % ACTmax. In a few lines:
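C-terminally FLAG-tagged enzyme expressed in E. coli and purified. Reaction: 25 mM Hepes pH 7.2, 25 mM NaCl, 10 mM MgCl2, 0.01% Brij35, 1 mM DTT, 5 μM ATP, 5 mM glucose, 2% DMSO, 60 min at room temperature. Remaining ATP was read by luciferase luminescence; pKact and % ACTmax came from nonlinear fits of 11-point 2-fold dilutions.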

For the compound `Cc1cc(S(=O)(=O)N2CCN([C@@H](CC3CCCCC3)C(=O)Nc3nccs3)C(=O)C2)c(C(F)(F)F)o1` [Example 160, (S)-3-cyclohexyl-2-(4-(5-methyl-2-(trifluoromethyl)furan-3-ylsulfonyl)-2-oxopiperazin-1-yl)-N-(thiazol-2-yl)propanamide], the EC50 is 1580 to 2510 nM and the Emax was 108 to 119%.
`O=C(Nc1nccs1)[C@H](CC1CCCCC1)N1CCN(S(=O)(=O)c2ccc(-c3cnco3)s2)CC1=O` [Example 161, (S)-3-cyclohexyl-2-(4-(5-(oxazol-5-yl)thiophen-2-ylsulfonyl)-2-oxopiperazin-1-yl)-N-(thiazol-2-yl)propanamide]: the EC50 was 1580 to 2510 nM and the Emax is 97.1 to 107%.
Take `COC(=O)c1c(C)oc(C)c1S(=O)(=O)N1CCN([C@@H](CC2CCCCC2)C(=O)Nc2nccs2)C(=O)C1` [Example 162, (S)-methyl 4-(4-(3-cyclohexyl-1-oxo-1-(thiazol-2-ylamino)propan-2-yl)-3-oxopiperazin-1-ylsulfonyl)-2,5-dimethylfuran-3-carboxylate]: the EC50 was no less than 3160 nM and the Emax is no more than 74%.
Consider `Cc1c(S(=O)(=O)N2CCN([C@@H](CC3CCCCC3)C(=O)Nc3nccs3)C(=O)C2)cnn1-c1ccccc1` [Example 163, (S)-3-cyclohexyl-2-(4-(5-methyl-1-phenyl-1H-pyrazol-4-ylsulfonyl)-2-oxopiperazin-1-yl)-N-(thiazol-2-yl)propanamide], for which the EC50 lay within 1580 to 2510 nM and the Emax is no more than 74%.
Take `O=C(Nc1nccs1)[C@H](CC1CCCCC1)N1CCN(S(=O)(=O)c2c(Cl)nc3sccn23)CC1=O` [Example 164, (S)-2-(4-(6-chloroimidazo[2,1-b]thiazol-5-ylsulfonyl)-2-oxopiperazin-1-yl)-3-cyclohexyl-N-(thiazol-2-yl)propanamide]: the EC50 is no less than 3160 nM and the Emax is 108 to 119%.
On to `O=C(Nc1nccs1)[C@H](CC1CCCCC1)N1CCN(S(=O)(=O)c2ccc(-c3nsc(Cl)n3)s2)CC1=O` [Example 165, (S)-2-(4-(5-(5-chloro-1,2,4-thiadiazol-3-yl)thiophen-2-ylsulfonyl)-2-oxopiperazin-1-yl)-3-cyclohexyl-N-(thiazol-2-yl)propanamide], for which the EC50 fell in the range of 794 to 1260 nM and the Emax is no more than 74%.
Take `CCOC(=O)c1nc(-c2ccc(S(=O)(=O)N3CCN([C@@H](CC4CCCCC4)C(=O)Nc4nccs4)C(=O)C3)s2)no1` [Example 167, (S)-ethyl 3-(5-(4-(3-cyclohexyl-1-oxo-1-(thiazol-2-ylamino)propan-2-yl)-3-oxopiperazin-1-ylsulfonyl)thiophen-2-yl)-1,2,4-oxadiazole-5-carboxylate]: the EC50 lay in the range of 1580 to 2510 nM and the Emax is no more than 74%.
The matching figures for `Cc1nccc(-c2cccc(S(=O)(=O)N3CCN([C@@H](CC4CCCCC4)C(=O)Nc4nccs4)C(=O)C3)c2)n1` [Example 169, (S)-3-cyclohexyl-2-(4-(3-(2-methylpyrimidin-4-yl)phenylsulfonyl)-2-oxopiperazin-1-yl)-N-(thiazol-2-yl)propanamide]: 794 to 1260 nM and 97.1 to 107%.
With `O=C(Nc1nccs1)[C@H](CC1CCCCC1)N1CCN(S(=O)(=O)c2cc(Cl)c(Cl)s2)CC1=O` [Example 170, (S)-3-cyclohexyl-2-(4-(4,5-dichlorothiophen-2-ylsulfonyl)-2-oxopiperazin-1-yl)-N-(thiazol-2-yl)propanamide], the EC50 is no more than 631 nM and the Emax is no more than 74%.
In the same order, the values of `O=C(Nc1nccs1)[C@H](CC1CCCCC1)N1CCN(S(=O)(=O)c2cccc3nsnc23)CC1=O` [Example 171, (S)-2-(4-(benzo[c][1,2,5]thiadiazol-4-ylsulfonyl)-2-oxopiperazin-1-yl)-3-cyclohexyl-N-(thiazol-2-yl)propanamide] are 794 to 1260 nM and 97.1 to 107%.
As to `O=C(Nc1nccs1)[C@H](CC1CCCCC1)N1CCN(S(=O)(=O)c2ccc(Cl)s2)CC1=O` [Example 172, (S)-2-(4-(5-chlorothiophen-2-ylsulfonyl)-2-oxopiperazin-1-yl)-3-cyclohexyl-N-(thiazol-2-yl)propanamide], the EC50 was no more than 631 nM and the Emax is 97.1 to 107%.
Regarding `Cc1noc(C)c1S(=O)(=O)N1CCN([C@@H](CC2CCCCC2)C(=O)Nc2nccs2)C(=O)C1` [Example 173, (S)-3-cyclohexyl-2-(4-(3,5-dimethylisoxazol-4-ylsulfonyl)-2-oxopiperazin-1-yl)-N-(thiazol-2-yl)propanamide], the EC50 was no less than 3160 nM and the Emax is 74.1 to 97%.
For `O=C(Nc1nccs1)[C@H](CC1CCCCC1)N1CCN(S(=O)(=O)c2ccc(-c3ccno3)s2)CC1=O` [Example 174, (S)-3-cyclohexyl-2-(4-(5-(isoxazol-5-yl)thiophen-2-ylsulfonyl)-2-oxopiperazin-1-yl)-N-(thiazol-2-yl)propanamide], the EC50 was in the range of 1580 to 2510 nM and the Emax is no more than 74%.
In the same order, the values of `Cn1nc(-c2ccc(S(=O)(=O)N3CCN([C@@H](CC4CCCCC4)C(=O)Nc4nccs4)C(=O)C3)s2)cc1C(F)(F)F` [Example 175, (S)-3-cyclohexyl-2-(4-(5-(1-methyl-5-(trifluoromethyl)-1H-pyrazol-3-yl)thiophen-2-ylsulfonyl)-2-oxopiperazin-1-yl)-N-(thiazol-2-yl)propanamide] are no less than 3160 nM and no more than 74%.
Consider `O=C(Nc1nccs1)[C@H](CC1CCCCC1)N1CCN(S(=O)(=O)c2cccc3nonc23)CC1=O` [Example 176, (S)-2-(4-(benzo[c][1,2,5]oxadiazol-4-ylsulfonyl)-2-oxopiperazin-1-yl)-3-cyclohexyl-N-(thiazol-2-yl)propanamide], for which the EC50 is no more than 631 nM and the Emax is no less than 119%.
Regarding `O=C(Nc1nccs1)[C@H](CC1CCCCC1)N1CCN(S(=O)(=O)c2ccc(F)c(Cl)c2)CC1=O` [Example 177, (S)-2-(4-(3-chloro-4-fluorophenylsulfonyl)-2-oxopiperazin-1-yl)-3-cyclohexyl-N-(thiazol-2-yl)propanamide], the EC50 was 1580 to 2510 nM and the Emax is 74.1 to 97%.
In the case of `O=C(c1cccc(S(=O)(=O)N2CCN([C@@H](CC3CCCCC3)C(=O)Nc3nccs3)C(=O)C2)c1)c1ccccn1` [Example 178, (S)-3-cyclohexyl-2-(2-oxo-4-(3-picolinoylphenylsulfonyl)piperazin-1-yl)-N-(thiazol-2-yl)propanamide], the EC50 fell in the range of 794 to 1260 nM and the Emax is 74.1 to 97%.
For the compound `O=C(c1ccncc1)c1cccc(S(=O)(=O)N2CCN([C@@H](CC3CCCCC3)C(=O)Nc3nccs3)C(=O)C2)c1` [Example 179, (S)-3-cyclohexyl-2-(4-(3-isonicotinoylphenylsulfonyl)-2-oxopiperazin-1-yl)-N-(thiazol-2-yl)propanamide], the EC50 fell in the range of 794 to 1260 nM and the Emax is 108 to 119%.
With `Cc1cc(S(=O)(=O)N2CCN([C@@H](CC3CCCCC3)C(=O)Nc3nccs3)C(=O)C2)c(C)s1` [Example 180, (S)-3-cyclohexyl-2-(4-(2,5-dimethylthiophen-3-ylsulfonyl)-2-oxopiperazin-1-yl)-N-(thiazol-2-yl)propanamide], the EC50 was no more than 631 nM and the Emax was 108 to 119%.
For the compound `Cc1cc(S(=O)(=O)N2CCN([C@@H](CC3CCCCC3)C(=O)Nc3nccs3)C(=O)C2)c(C)o1` [Example 181, (S)-3-cyclohexyl-2-(4-(2,5-dimethylfuran-3-ylsulfonyl)-2-oxopiperazin-1-yl)-N-(thiazol-2-yl)propanamide], the EC50 was no more than 631 nM and the Emax is 108 to 119%.
The matching figures for `COc1cc(C)c(S(=O)(=O)N2CCN([C@@H](CC3CCCCC3)C(=O)Nc3nccs3)C(=O)C2)c(C)c1C` [Example 182, (S)-3-cyclohexyl-2-(4-(4-methoxy-2,3,6-trimethylphenylsulfonyl)-2-oxopiperazin-1-yl)-N-(thiazol-2-yl)propanamide]: 794 to 1260 nM and no more than 74%.
In the same order, the values of `O=C(Nc1nccs1)[C@H](CC1CCCCC1)N1CCN(S(=O)(=O)c2ccc(F)c(F)c2F)CC1=O` [Example 183, (S)-3-cyclohexyl-2-(2-oxo-4-(2,3,4-trifluorophenylsulfonyl)piperazin-1-yl)-N-(thiazol-2-yl)propanamide] are 794 to 1260 nM and no less than 119%.
In the same order, the values of `O=C(Nc1nccs1)[C@H](CC1CCCCC1)N1CCN(S(=O)(=O)c2cc(F)ccc2F)CC1=O` [Example 184, (S)-3-cyclohexyl-2-(4-(2,5-difluorophenylsulfonyl)-2-oxopiperazin-1-yl)-N-(thiazol-2-yl)propanamide] are no more than 631 nM and 108 to 119%.
As for `O=C(Nc1nccs1)[C@H](CC1CCCCC1)N1CCN(S(=O)(=O)c2cc(Cl)ccc2F)CC1=O` [Example 185, (S)-2-(4-(5-chloro-2-fluorophenylsulfonyl)-2-oxopiperazin-1-yl)-3-cyclohexyl-N-(thiazol-2-yl)propanamide], the EC50 was no more than 631 nM and the Emax is no less than 119%.
